Among the data in patent publication US9624214B2, “Amino-substituted imidazo[1,2-a]pyridinecarboxamides and their use” (BAYER PHARMA AKTIENGESELLSCHAFT, priority 2012, dated 2017) are MEC values, retold here.

This assay addresses T1, recombinant guanylate cyclase reporter cell line (Rattus norvegicus, UniProt P19686+P20595).
T1 construct: expressed in transfected cells
T1 sequence (P20595 1-619): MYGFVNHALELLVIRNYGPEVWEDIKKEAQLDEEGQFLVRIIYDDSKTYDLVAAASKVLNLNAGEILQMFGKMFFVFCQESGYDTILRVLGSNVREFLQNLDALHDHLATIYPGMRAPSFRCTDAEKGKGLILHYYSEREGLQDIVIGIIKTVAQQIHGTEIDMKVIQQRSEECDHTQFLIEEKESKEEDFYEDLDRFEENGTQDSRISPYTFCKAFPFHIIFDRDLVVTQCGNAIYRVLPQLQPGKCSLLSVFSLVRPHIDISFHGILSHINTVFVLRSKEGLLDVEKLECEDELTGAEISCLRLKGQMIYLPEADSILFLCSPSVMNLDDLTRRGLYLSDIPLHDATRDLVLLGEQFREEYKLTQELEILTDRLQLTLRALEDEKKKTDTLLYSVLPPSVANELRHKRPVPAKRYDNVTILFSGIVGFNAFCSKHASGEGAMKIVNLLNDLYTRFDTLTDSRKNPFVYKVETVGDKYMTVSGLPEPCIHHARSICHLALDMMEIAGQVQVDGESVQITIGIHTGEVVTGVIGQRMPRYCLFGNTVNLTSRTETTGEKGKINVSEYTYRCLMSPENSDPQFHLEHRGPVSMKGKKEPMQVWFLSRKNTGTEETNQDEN
T1 sequence (P19686 1-690): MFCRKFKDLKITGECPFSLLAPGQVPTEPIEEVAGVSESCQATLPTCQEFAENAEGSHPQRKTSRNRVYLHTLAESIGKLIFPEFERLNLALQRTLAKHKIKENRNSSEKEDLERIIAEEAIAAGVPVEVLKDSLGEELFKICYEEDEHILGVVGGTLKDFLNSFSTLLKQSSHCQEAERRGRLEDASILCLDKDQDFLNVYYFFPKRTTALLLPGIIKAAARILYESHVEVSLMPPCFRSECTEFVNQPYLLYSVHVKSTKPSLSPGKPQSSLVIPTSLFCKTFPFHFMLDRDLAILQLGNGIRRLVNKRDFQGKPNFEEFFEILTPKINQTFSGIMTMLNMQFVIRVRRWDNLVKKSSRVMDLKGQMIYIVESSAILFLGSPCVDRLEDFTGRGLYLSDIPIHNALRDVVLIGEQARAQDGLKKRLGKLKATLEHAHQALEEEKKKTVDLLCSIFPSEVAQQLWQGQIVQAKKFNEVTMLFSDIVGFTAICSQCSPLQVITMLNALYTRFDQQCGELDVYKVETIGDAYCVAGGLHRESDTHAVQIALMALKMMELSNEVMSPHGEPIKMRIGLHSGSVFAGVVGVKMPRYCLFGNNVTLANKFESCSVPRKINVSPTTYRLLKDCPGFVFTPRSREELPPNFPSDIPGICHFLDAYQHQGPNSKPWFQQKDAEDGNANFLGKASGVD
Put plainly: B-2. Action on recombinant guanylate cyclase reporter cell line. The format is cell-based. Conditions: MEC = minimal effective concentration; in some cases mean values from individual determinations. The method, boiled down:
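Read-out: MEC (minimal effective concentration) in cells. Reporter line carries recombinant sGC. Some values are averages of single runs.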

As for `CCCC(C)(N)CNC(=O)c1c(C)nc2c(OCc3cccc(F)c3)cc(C)cn12` (racemic) [Example 348, rac-N-(2-amino-2-methylpentyl)-8-[(3-fluorobenzyl)oxy]-2,6-dimethylimidazo[1,2-a]pyridine-3-carboxamide], the MEC was determined as 1.00 µM.

As to `Cc1cc(OCc2c(F)cccc2F)c2nc(C)c(C(=O)NCC(C)(N)COc3ccc(F)c(F)c3)n2c1` (racemic) [Example 350, rac-N-[2-amino-3-(3,4-difluorophenoxy)-2-methylpropyl]-8-[(2,6-difluorobenzyl)oxy]-2,6-dimethylimidazo[1,2-a]pyridine-3-carboxamide], the MEC worked out at 1.00 µM.

`CCCC(C)(N)CNC(=O)c1c(C)nc2c(OCc3c(F)cccc3OC)cc(C)cn12` (racemic) [Example 351, rac-N-(2-amino-2-methylpentyl)-8-[(2-fluoro-6-methoxybenzyl)oxy]-2,6-dimethylimidazo[1,2-a]pyridine-3-carboxamide]: the MEC was determined as 3.00 µM.

In the case of `Cc1cc(OCc2c(F)cccc2F)c2nc(C)c(C(=O)NCC3CSCCN3)n2c1` (racemic) [Example 366, rac-8-[(2,6-difluorobenzyl)oxy]-2,6-dimethyl-N-(thiomorpholin-3-ylmethyl)imidazo[1,2-a]pyridine-3-carboxamide], the MEC worked out at 0.10 µM.

For `Cc1cc(OCc2c(F)cccc2F)c2nc(C)c(C(=O)NCC(N)c3cccc(OCCO)c3)n2c1` (racemic) [Example 367, rac-N-{2-amino-2-[3-(2-hydroxyethoxy)phenyl]ethyl}-8-[(2,6-difluorobenzyl)oxy]-2,6-dimethylimidazo[1,2-a]pyridine-3-carboxamide], the MEC is 3.00 µM.

Take `COc1ccc(CC(C)(N)CNC(=O)c2c(C)nc3c(OCc4c(F)cccc4F)cc(C)cn23)cc1` (racemic) [Example 368, rac-N-[2-amino-3-(4-methoxyphenyl)-2-methylpropyl]-8-[(2,6-difluorobenzyl)oxy]-2,6-dimethylimidazo[1,2-a]pyridine-3-carboxamide]: the MEC was 0.10 µM.

For the molecule `Cc1cc(OCc2c(F)cccc2F)c2nc(C)c(C(=O)NCC(N)c3ccc(C)o3)n2c1` (racemic) [Example 369, rac-N-[2-amino-2-(5-methyl-2-furyl)ethyl]-8-[(2,6-difluorobenzyl)oxy]-2,6-dimethylimidazo[1,2-a]pyridine-3-carboxamide], the MEC amounted to 0.30 µM.

On to `Cc1cc(OCc2c(F)cccc2F)c2nc(C)c(C(=O)NCC(N)c3cnn(C)c3)n2c1` (racemic) [Example 370, rac-N-[2-amino-2-(1-methyl-1H-pyrazol-4-yl)ethyl]-8-[(2,6-difluorobenzyl)oxy]-2,6-dimethylimidazo[1,2-a]pyridine-3-carboxamide], for which the MEC was found to be 3.00 µM.

In the case of `Cc1cc(OCc2c(F)cccc2F)c2nc(C)c(C(=O)NCC(N)c3ccc4c(c3)OCCO4)n2c1` (racemic) [Example 371, rac-N-[2-amino-2-(2,3-dihydro-1,4-benzodioxin-6-yl)ethyl]-8-[(2,6-difluorobenzyl)oxy]-2,6-dimethylimidazo[1,2-a]pyridine-3-carboxamide], the MEC was 3.00 µM.

`Cc1cc(OCc2c(F)cccc2F)c2nc(C)c(C(=O)NCC(N)c3ccc4ncccc4c3)n2c1` (racemic) [Example 372, rac-N-[2-amino-2-(quinolin-6-yl)ethyl]-8-[(2,6-difluorobenzyl)oxy]-2,6-dimethylimidazo[1,2-a]pyridine-3-carboxamide]: the MEC amounted to 3.00 µM.

`Cc1cc(OCc2c(F)cccc2F)c2nc(C)c(C(=O)NCC(N)c3csc4ccccc34)n2c1` (racemic) [Example 373, rac-N-[2-amino-2-(1-benzothiophen-3-yl)ethyl]-8-[(2,6-difluorobenzyl)oxy]-2,6-dimethylimidazo[1,2-a]pyridine-3-carboxamide]: the MEC came to 3.00 µM.

For `Cc1cc(OCc2c(F)cccc2F)c2nc(C)c(C(=O)NCC(N)c3cc(F)c(F)c(F)c3)n2c1` (racemic) [Example 374, rac-N-[2-amino-2-(3,4,5-trifluorophenyl)ethyl]-8-[(2,6-difluorobenzyl)oxy]-2,6-dimethylimidazo[1,2-a]pyridine-3-carboxamide], the MEC is 1.00 µM.

For the molecule `Cc1cc(OCc2c(F)cccc2F)c2nc(C)c(C(=O)NCC(N)c3cccc(OC(F)F)c3)n2c1` (racemic) [Example 375, rac-N-{2-amino-2-[3-(difluoromethoxy)phenyl]ethyl}-8-[(2,6-difluorobenzyl)oxy]-2,6-dimethylimidazo[1,2-a]pyridine-3-carboxamide], the MEC turned out to be 3.00 µM.

Consider `Cc1cc(OCc2c(F)cccc2F)c2nc(C)c(C(=O)NCC(N)c3cccc(C(F)(F)F)c3)n2c1` (racemic) [Example 376, rac-N-{2-amino-2-[3-(trifluoromethyl)phenyl]ethyl}-8-[(2,6-difluorobenzyl)oxy]-2,6-dimethylimidazo[1,2-a]pyridine-3-carboxamide], for which the MEC is 3.00 µM.

Consider `Cc1cc(OCc2c(F)cccc2F)c2nc(C)c(C(=O)NCC(N)c3cccc(OC(F)(F)F)c3)n2c1` (racemic) [Example 377, rac-N-{2-amino-2-[3-(trifluoromethoxy)phenyl]ethyl}-8-[(2,6-difluorobenzyl)oxy]-2,6-dimethylimidazo[1,2-a]pyridine-3-carboxamide], for which the MEC was determined as 3.00 µM.

For the molecule `COc1cccc(C(N)CNC(=O)c2c(C)nc3c(OCc4c(F)cccc4F)cc(C)cn23)c1` (racemic) [Example 378, rac-N-[2-amino-2-(3-methoxyphenyl)ethyl]-8-[(2,6-difluorobenzyl)oxy]-2,6-dimethylimidazo[1,2-a]pyridine-3-carboxamide], the MEC was found to be 1.00 µM.

Turning to `Cc1cc(OCc2c(F)cccc2F)c2nc(C)c(C(=O)NC(CN)c3ccc4ccccc4c3)n2c1` (racemic) [Example 379, rac-N-[2-amino-1-(2-naphthyl)ethyl]-8-[(2,6-difluorobenzyl)oxy]-2,6-dimethylimidazo[1,2-a]pyridine-3-carboxamide], the MEC came to 1.00 µM.

As to `Cc1cc(OCc2c(F)cccc2F)c2nc(C)c(C(=O)NC(CN)c3cccc(OC(F)(F)F)c3)n2c1` (racemic) [Example 380, rac-N-{2-amino-1-[3-(trifluoromethoxy)phenyl]ethyl}-8-[(2,6-difluorobenzyl)oxy]-2,6-dimethylimidazo[1,2-a]pyridine-3-carboxamide], the MEC was found to be 1.00 µM.

On to `Cc1cc(OCc2c(F)cccc2F)c2nc(C)c(C(=O)NC(CN)c3ccc4c(c3)OCO4)n2c1` (racemic) [Example 381, rac-N-[2-amino-1-(1,3-benzodioxol-5-yl)ethyl]-8-[(2,6-difluorobenzyl)oxy]-2,6-dimethylimidazo[1,2-a]pyridine-3-carboxamide], for which the MEC stood at 0.30 µM.

Turning to `COc1cccc(C(CN)NC(=O)c2c(C)nc3c(OCc4c(F)cccc4F)cc(C)cn23)c1` (racemic) [Example 382, rac-N-[2-amino-1-(3-methoxyphenyl)ethyl]-8-[(2,6-difluorobenzyl)oxy]-2,6-dimethylimidazo[1,2-a]pyridine-3-carboxamide], the MEC is 0.30 µM.

Consider `Cc1cc(OCc2c(F)cccc2F)c2nc(C)c(C(=O)NC(CN)c3cccc(Br)c3)n2c1` (racemic) [Example 383, rac-N-[2-amino-1-(3-bromophenyl)ethyl]-8-[(2,6-difluorobenzyl)oxy]-2,6-dimethylimidazo[1,2-a]pyridine-3-carboxamide], for which the MEC is 0.30 µM.

As for `Cc1cc(OCc2c(F)cccc2F)c2nc(C)c(C(=O)NC(CN)c3ccc([N+](=O)[O-])cc3)n2c1` (racemic) [Example 384, rac-N-[2-amino-1-(4-nitrophenyl)ethyl]-8-[(2,6-difluorobenzyl)oxy]-2,6-dimethylimidazo[1,2-a]pyridine-3-carboxamide], the MEC was 0.30 µM.

For `C=Cc1cccc(C(CN)NC(=O)c2c(C)nc3c(OCc4c(F)cccc4F)cc(C)cn23)c1` (racemic) [Example 385, rac-N-[2-amino-1-(3-ethenylphenyl)ethyl]-8-[(2,6-difluorobenzyl)oxy]-2,6-dimethylimidazo[1,2-a]pyridine-3-carboxamide], the MEC was 1.00 µM.
